Source: ChEMBL document CHEMBL5120922, “Discovery, Optimization, and Evaluation of Potent and Selective PI3Kδ-γ Dual Inhibitors for the Treatment of B-cell Malignancies” (J Med Chem, 2022)

How the values were obtained:
[1] = biological target: T1, Phosphatidylinositol 4,5-bisphosphate 3-kinase catalytic subunit alpha isoform (Homo sapiens, UniProt P42336); test: Inhibition of N-terminal His6-tagged recombinant full length human PI3Kalpha expressed in baculovirus infected Sf21 insect cells incubated for 30 mins by HTRF assay
T1 sequence (P42336 whole entry, canonical isoform): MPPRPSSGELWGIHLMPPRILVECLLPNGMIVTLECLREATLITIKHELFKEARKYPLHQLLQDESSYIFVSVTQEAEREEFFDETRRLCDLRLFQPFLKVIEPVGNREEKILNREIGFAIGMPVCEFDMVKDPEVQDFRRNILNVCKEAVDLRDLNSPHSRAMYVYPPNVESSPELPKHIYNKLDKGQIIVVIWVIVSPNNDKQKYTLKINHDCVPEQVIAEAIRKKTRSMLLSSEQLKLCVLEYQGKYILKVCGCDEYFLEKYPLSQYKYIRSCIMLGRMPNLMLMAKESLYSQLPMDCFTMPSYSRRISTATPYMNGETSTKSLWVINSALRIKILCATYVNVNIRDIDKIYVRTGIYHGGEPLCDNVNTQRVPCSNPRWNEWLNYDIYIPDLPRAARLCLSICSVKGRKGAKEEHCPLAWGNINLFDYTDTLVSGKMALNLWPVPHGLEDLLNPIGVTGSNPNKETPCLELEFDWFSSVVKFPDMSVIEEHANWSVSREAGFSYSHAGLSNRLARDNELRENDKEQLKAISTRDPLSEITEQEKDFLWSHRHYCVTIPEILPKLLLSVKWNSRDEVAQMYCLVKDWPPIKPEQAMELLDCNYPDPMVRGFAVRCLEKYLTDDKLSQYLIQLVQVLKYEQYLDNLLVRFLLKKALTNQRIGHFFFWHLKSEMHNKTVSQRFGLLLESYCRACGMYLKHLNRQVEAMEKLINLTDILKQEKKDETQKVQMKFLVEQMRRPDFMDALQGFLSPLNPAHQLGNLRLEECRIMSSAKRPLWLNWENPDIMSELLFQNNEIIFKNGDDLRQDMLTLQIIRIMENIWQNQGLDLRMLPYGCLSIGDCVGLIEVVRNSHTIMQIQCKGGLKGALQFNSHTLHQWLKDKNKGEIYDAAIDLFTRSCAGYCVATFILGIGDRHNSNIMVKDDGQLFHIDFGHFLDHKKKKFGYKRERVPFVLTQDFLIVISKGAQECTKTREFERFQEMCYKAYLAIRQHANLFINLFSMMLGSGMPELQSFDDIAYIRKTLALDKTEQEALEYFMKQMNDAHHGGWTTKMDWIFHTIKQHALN

DOHH-2 = test: Antiproliferative activity against human DOHH-2 cells assessed as cell growth inhibition measured after 72 hrs by MTT assay; format: functional, cell-based; settings: DOHH-2, 72 h
[2] = biological target: T2, Phosphatidylinositol 4,5-bisphosphate 3-kinase catalytic subunit delta isoform (Homo sapiens, UniProt O00329); test: Inhibition of N-terminal His6-tagged recombinant full length human PI3Kdelta expressed in baculovirus infected Sf21 insect cells incubated for 30 mins by HTRF assay
T2 sequence (O00329 whole entry): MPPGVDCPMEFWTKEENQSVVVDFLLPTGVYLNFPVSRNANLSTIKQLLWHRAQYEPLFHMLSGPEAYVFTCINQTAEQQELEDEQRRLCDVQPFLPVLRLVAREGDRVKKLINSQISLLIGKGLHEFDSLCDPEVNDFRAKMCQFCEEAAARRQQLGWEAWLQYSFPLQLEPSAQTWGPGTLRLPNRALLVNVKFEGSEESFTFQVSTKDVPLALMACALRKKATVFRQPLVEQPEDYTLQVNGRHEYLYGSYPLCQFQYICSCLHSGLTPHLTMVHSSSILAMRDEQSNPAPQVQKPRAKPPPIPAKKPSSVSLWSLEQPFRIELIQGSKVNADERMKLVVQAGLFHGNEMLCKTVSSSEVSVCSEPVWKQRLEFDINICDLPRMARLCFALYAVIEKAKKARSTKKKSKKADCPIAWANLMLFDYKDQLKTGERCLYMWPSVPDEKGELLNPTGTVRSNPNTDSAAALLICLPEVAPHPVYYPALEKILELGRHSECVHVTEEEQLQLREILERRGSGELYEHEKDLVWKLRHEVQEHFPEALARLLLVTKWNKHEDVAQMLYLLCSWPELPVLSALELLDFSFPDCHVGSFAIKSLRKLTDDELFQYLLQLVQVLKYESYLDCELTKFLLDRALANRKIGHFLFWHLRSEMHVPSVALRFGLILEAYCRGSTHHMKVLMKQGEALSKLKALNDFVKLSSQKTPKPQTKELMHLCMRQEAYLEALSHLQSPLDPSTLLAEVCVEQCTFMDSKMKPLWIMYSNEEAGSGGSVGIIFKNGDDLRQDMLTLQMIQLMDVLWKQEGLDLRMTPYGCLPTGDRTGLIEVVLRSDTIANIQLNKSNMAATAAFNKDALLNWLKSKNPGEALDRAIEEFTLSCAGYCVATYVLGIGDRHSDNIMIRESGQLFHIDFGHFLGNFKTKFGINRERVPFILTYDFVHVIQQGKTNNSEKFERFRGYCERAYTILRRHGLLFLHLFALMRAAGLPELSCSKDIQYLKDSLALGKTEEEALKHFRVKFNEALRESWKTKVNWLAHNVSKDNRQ

[3] = biological target: T3, Phosphatidylinositol 4,5-bisphosphate 3-kinase catalytic subunit beta isoform (Homo sapiens, UniProt P42338); test: Inhibition of N-terminal His6-tagged recombinant full length human PI3Kbeta expressed in baculovirus infected Sf21 insect cells incubated for 30 mins by HTRF assay
Target sequence in this assay (P42338 whole entry, canonical isoform): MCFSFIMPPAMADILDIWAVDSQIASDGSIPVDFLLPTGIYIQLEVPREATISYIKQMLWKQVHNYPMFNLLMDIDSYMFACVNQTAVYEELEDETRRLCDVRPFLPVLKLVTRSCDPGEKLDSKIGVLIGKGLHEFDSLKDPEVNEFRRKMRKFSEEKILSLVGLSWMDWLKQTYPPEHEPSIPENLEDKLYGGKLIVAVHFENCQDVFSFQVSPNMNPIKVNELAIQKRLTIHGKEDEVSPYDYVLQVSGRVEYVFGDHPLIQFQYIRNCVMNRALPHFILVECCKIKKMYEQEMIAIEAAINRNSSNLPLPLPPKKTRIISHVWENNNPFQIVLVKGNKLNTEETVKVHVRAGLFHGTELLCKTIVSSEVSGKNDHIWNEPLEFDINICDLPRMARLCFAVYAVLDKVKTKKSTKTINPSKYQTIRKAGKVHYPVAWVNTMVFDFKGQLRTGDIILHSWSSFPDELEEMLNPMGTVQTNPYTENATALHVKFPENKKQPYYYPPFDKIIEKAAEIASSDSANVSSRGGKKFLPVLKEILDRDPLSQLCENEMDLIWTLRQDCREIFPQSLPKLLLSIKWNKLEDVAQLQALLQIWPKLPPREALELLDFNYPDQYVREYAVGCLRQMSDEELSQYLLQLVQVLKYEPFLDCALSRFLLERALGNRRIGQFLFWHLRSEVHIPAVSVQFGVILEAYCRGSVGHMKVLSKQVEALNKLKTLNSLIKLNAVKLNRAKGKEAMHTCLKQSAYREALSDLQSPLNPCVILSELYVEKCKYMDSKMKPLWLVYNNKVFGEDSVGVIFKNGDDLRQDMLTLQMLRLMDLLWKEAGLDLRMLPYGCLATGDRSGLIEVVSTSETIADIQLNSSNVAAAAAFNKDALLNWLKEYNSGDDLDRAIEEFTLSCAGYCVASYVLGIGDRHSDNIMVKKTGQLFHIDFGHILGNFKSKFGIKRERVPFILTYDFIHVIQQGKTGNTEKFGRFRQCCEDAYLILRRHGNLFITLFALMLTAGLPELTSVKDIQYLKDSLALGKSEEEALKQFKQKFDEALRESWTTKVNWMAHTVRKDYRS

SUD4 = test: Antiproliferative activity against human SU-DHL-4 cells assessed as cell growth inhibition measured after 72 hrs by MTT assay; format: functional, cell-based; settings: SU-DHL-4, 72 h
[4] = biological target: T4, Phosphatidylinositol 4,5-bisphosphate 3-kinase catalytic subunit gamma isoform (Homo sapiens, UniProt P48736); test: Inhibition of N-terminal His6-tagged recombinant full length human PI3Kgamma expressed in baculovirus infected Sf21 insect cells incubated for 30 mins by HTRF assay
Target sequence in this assay (P48736 whole entry, canonical isoform): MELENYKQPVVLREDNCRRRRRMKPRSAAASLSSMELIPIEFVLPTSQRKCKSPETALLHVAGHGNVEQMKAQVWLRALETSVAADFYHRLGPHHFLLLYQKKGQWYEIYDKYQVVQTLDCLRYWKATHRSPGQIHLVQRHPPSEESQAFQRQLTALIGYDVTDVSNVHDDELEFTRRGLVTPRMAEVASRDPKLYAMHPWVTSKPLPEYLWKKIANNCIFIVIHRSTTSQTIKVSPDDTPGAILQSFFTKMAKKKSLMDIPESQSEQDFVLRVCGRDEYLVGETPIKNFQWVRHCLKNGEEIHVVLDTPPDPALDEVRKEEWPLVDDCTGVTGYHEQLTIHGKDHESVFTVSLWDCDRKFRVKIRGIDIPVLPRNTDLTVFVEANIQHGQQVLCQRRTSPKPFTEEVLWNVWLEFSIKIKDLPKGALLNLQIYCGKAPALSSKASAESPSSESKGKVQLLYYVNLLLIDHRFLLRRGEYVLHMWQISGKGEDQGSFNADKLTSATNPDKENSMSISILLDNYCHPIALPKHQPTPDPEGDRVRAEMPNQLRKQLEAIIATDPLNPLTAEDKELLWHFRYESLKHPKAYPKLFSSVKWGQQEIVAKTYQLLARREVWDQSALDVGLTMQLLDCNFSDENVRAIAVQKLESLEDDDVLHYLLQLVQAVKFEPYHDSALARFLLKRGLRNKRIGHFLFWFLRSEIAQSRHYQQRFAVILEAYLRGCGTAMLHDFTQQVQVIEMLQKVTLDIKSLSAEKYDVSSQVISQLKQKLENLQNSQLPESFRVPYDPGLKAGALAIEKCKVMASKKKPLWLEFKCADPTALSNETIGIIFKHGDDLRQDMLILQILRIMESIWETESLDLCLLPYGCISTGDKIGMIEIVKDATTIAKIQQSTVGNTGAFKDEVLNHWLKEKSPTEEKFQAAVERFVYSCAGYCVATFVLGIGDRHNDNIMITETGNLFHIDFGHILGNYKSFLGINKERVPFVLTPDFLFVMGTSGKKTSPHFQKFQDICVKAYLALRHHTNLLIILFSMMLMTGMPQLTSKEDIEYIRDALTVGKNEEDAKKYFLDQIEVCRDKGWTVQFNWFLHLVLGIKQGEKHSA

SU-DHL-6 = test: Antiproliferative activity against human SU-DHL-6 cells assessed as cell growth inhibition measured after 72 hrs by MTT assay; format: functional, cell-based; settings: SU-DHL-6, 72 h
[5] = Metabolic stability in human liver microsomes assessed as clearance at 1 uM measured upto 60 mins in presence of NADPH by measuring protein; format: ADME, Microsome; settings: 1 h
[6] = biological target: T4, Phosphatidylinositol 4,5-bisphosphate 3-kinase catalytic subunit gamma isoform; test: Inhibition of N-terminal His6-tagged recombinant full length human PI3Kgamma expressed in baculovirus infected Sf21 insect cells at 0.1 uM by HTRF assay relative to control
Target sequence in this assay (P48736 whole entry, looked up, canonical isoform): as the sequence (P48736 whole entry, canonical isoform) above

[7] = biological target: T3, Phosphatidylinositol 4,5-bisphosphate 3-kinase catalytic subunit beta isoform; test: Inhibition of N-terminal His6-tagged recombinant full length human PI3Kbeta expressed in baculovirus infected Sf21 insect cells at 1 uM by HTRF assay relative to control
Target sequence in this assay (P42338 whole entry, looked up, canonical isoform): as the sequence (P42338 whole entry, canonical isoform) above

[8] = Metabolic stability in human liver microsomes assessed as half life at 1 uM measured upto 60 mins in presence of NADPH; format: ADME, Microsome
[9] = biological target: T1, Phosphatidylinositol 4,5-bisphosphate 3-kinase catalytic subunit alpha isoform; test: Inhibition of N-terminal His6-tagged recombinant full length human PI3Kalpha expressed in baculovirus infected Sf21 insect cells at 1 uM by HTRF assay relative to control
[10] = Metabolic stability in human liver microsomes assessed as compound remaining at 1 uM measured upto 60 mins in presence of NADPH; format: ADME, Microsome; settings: read-out: Stability
[11] = biological target: T5, Phosphatidylinositol 4,5-bisphosphate 3-kinase catalytic subunit delta isoform (Homo sapiens) (UniProt O00329); test: Inhibition of N-terminal His6-tagged recombinant full length human PI3Kdelta expressed in baculovirus infected Sf21 insect cells at 0.1 uM by HTRF assay relative to control
T5 sequence (whole entry): T2 sequence (O00329 whole entry)

[12] = biological target: T5, Phosphatidylinositol 4,5-bisphosphate 3-kinase catalytic subunit delta isoform (Homo sapiens); test: Inhibition of N-terminal His6-tagged recombinant full length human PI3Kdelta expressed in baculovirus infected Sf21 insect cells at 1 uM by HTRF assay relative to control
[13] = biological target: T4, Phosphatidylinositol 4,5-bisphosphate 3-kinase catalytic subunit gamma isoform; test: Inhibition of N-terminal His6-tagged recombinant full length human PI3Kgamma expressed in baculovirus infected Sf21 insect cells at 1 uM by HTRF assay relative to control
Target sequence in this assay (P48736 whole entry, looked up, canonical isoform): as the sequence (P48736 whole entry, canonical isoform) above

SMILES	IC50 [1] [µM]	IC50 [2] [µM]	IC50 [3] [µM]	IC50 [4] [µM]	IC50 (SU-DHL-6) [µM]	CLH [5] [mL/min/g]	inhibition [6] [%]	inhibition [7] [%]	half-life at 1 µM [8] [h]	inhibition [9] [%]	remaining at 1 h, 1 µM [10] [%]	inhibition [11] [%]	inhibition [12] [%]	inhibition [13] [%]	IC50 (DOHH-2) [µM]	IC50 (SUD4) [µM]
N#Cc1c(N)nc(N)nc1N1[C@H](c2nc3cccc(F)c3c(=O)n2-c2cccnc2)C[C@@H]2CCCC[C@@H]21	3120	42	1550	364	1.1										2.57	1.12
CCn1cc(-c2cccc3nc([C@@H]4CC[C@H](C)N4c4nc(N)nc(N)c4C#N)n(-c4ccccc4)c(=O)c23)cn1					0.53	17.4	-10	6	1.33	1	60	-4			0.74	0.29
C[C@H]1CC[C@@H](c2nc3cccc(-c4cnn(C)c4)c3c(=O)n2-c2ccccc2)N1c1nc(N)nc(N)c1C#N					0.42	13.8	12	20	1.67	-1	64.7	-8			0.68	0.3
C[C@H]1CC[C@@H](c2nc3cccc(C#Cc4cccnc4)c3c(=O)n2-c2ccccc2)N1c1nc(N)nc(N)c1C#N					0.32	8	31	13	2.89	8	78.1	4			0.69	0.24
N#Cc1c(N)nc(N)nc1N1[C@H](c2nc3cccc(Cl)c3c(=O)n2-c2cccc(F)c2)C[C@@H]2CCCC[C@@H]21		28		280	1.61										2.8	1.3
CCCn1cc(-c2cccc3nc([C@@H]4CC[C@H](C)N4c4nc(N)nc(N)c4C#N)n(-c4ccccc4)c(=O)c23)cn1					0.39	16.8	2	13	1.38	5	51.2	-2			0.69	0.33
N#Cc1c(N)nc(N)nc1N1[C@H](c2nc3cccc(Cl)c3c(=O)n2N2CCOCC2)C[C@@H]2CCCC[C@@H]21		41		312	1.34										3.86	1.04
CCOc1cncc(-c2cccc3nc([C@@H]4CC[C@H](C)N4c4nc(N)nc(N)c4C#N)n(-c4ccccc4)c(=O)c23)c1					0.43	28.4	-8	-3	0.813		46.1	-6			0.21	0.11

Continued, in another order:

IC50 [1] [µM]	IC50 [2] [µM]	IC50 [3] [µM]	IC50 [4] [µM]	IC50 (SU-DHL-6) [µM]	CLH [5] [mL/min/g]	inhibition [6] [%]	inhibition [7] [%]	half-life at 1 µM [8] [h]	inhibition [9] [%]	remaining at 1 h, 1 µM [10] [%]	inhibition [11] [%]	inhibition [12] [%]	inhibition [13] [%]	SMILES	IC50 (DOHH-2) [µM]	IC50 (SUD4) [µM]
258	2	412	17	0.19										C[C@H]1CC[C@@H](c2nc3cccc(Cl)c3c(=O)n2-c2cccc(F)c2)N1c1nc(N)nc(N)c1C#N	0.5	0.09
				0.32	29.6	10	28	0.78	12	40.4	1			CC(C)n1cc(-c2cccc3nc([C@@H]4CC[C@H](C)N4c4nc(N)nc(N)c4C#N)n(-c4ccccc4)c(=O)c23)cn1	0.54	0.21
				0.25	11.4	30	31	2.03	78	75.5	18	-2		C[C@H]1CC[C@@H](c2nc3cccc(Cl)c3c(=O)n2-c2ccccc2)N1c1nc(N)nc2[nH]cnc12	0.28	0.18
				0.28	37.4	25	19	0.618	-7	32.6				C[C@H]1CC[C@@H](c2nc3cccc(-c4cccnc4)c3c(=O)n2-c2ccccc2)N1c1nc(N)nc(N)c1C#N	1.01	0.12
				0.11	13	24	45	1.78	13	67.9	-7	-1	-3	C[C@H]1CC[C@@H](c2nc3cccc(Cl)c3c(=O)n2-c2ccccc2)N1c1nc(N)nc(N)c1C#N	0.82	0.12
				0.26	17.8	-2	2	1.3	23	45	0			C[C@H]1CC[C@@H](c2nc3cccc(-c4cnn(C5CC5)c4)c3c(=O)n2-c2ccccc2)N1c1nc(N)nc(N)c1C#N	0.39	0.22
